Data on 8 substances can be found in patent US11597752B2, “Peptides and combination of peptides and scaffolds thereof for use in immunotherapy against colorectal carcinoma (CRC) and other cancers” (priority 2015, dated 2023).

Assay [1] has as its system CD8+ T-cells of healthy HLA-A*02 donors. As to the kind of experiment: In vitro immunogenicity: T-cell priming with aAPCs loaded with peptide/MHC and anti-CD28, multimer staining. The class given is cell-based, human. Conditions: HLA-A*02 restricted peptides, among evaluable wells, Table 10B. The source says: In order to obtain information regarding the immunogenicity of the TUMAPs of the present invention, the inventors performed investigations using an in vitro T-cell priming assay based on repeated stimulations of CD8+ T-cells with artificial antigen presenting cells (aAPCs) loaded with peptide/MHC complexes and anti-CD28 antibody.
In order to perform in vitro stimulations by artificial antigen presenting cells loaded with peptide-MHC complex (pMHC) and anti-CD28 antibody, the inventors first isolated CD8+ T-cells from fresh HLA-A*02 leukapheresis products via positive selection using CD8 microbeads (Miltenyi Biotec, Bergisch-Gladbach, Germany) of healthy donors obtained from the University clinics Mannheim, Germany, after informed consent.
PBMCs and isolated CD8+ lymphocytes were incubated in T-cell medium (TCM) until use consisting of RPMI-Glutamax (Invitrogen, Karlsruhe, Germany) supplemented with 10% heat inactivated human AB serum (PAN-Biotech, Aidenbach, Germany), 100 U/ml Penicillin/100 μg/ml Streptomycin (Cambrex, Cologne, Germany), 1 mM sodium pyruvate (CC Pro, Oberdorla, Germany), 20 μg/ml Gentamycin (Cambrex). 2.5 ng/ml IL-7 (PromoCell, Heidelberg, Germany) and 10 U/ml IL-2 (Novartis Pharma, Nürnberg, Germany) were also added to the TCM at this step.
Generation of pMHC/anti-CD28 coated beads, T-cell stimulations and readout was performed in a highly defined in vitro system using four different pMHC molecules per stimulation condition and 8 different pMHC molecules per readout condition.
The purified co-stimulatory mouse IgG2a anti human CD28 Ab 9.3 (Jung et al., 1987) was chemically biotinylated using Sulfo-N-hydroxysuccinimidobiotin as recommended by the manufacturer (Perbio, Bonn, Germany). Beads used were 5.6 μm diameter streptavidin coated polystyrene particles (Bangs Laboratories, Illinois, USA).
800.000 beads/200 μl were coated in 96-well plates in the presence of 4×12.5 ng different biotin-pMHC, washed and 600 ng biotin anti-CD28 were added subsequently in a volume of 200 μl. Stimulations were initiated in 96-well plates by co-incubating 1×10^6 CD8+ T-cells with 2×10^6 washed coated beads in 200 μl TCM supplemented with 5 ng/ml IL-12 (PromoCell) for 3 days at 37° C. Half of the medium was then exchanged by fresh TCM supplemented with 80 U/ml IL-2 and incubating was continued for 4 days at 37° C. This stimulation cycle was performed for a total of three times. For the pMHC multimer readout using 8 different pMHC molecules per condition, a two-dimensional combinatorial coding approach was used as previously described (Andersen et al., 2012) with minor modifications encompassing coupling to 5 different fluorochromes. Finally, multimeric analyses were performed by staining the cells with Live/dead near IR dye (Invitrogen, Karlsruhe, Germany), CD8-FITC antibody clone SK1 (BD, Heidelberg, Germany) and fluorescent pMHC multimers. For analysis, a BD LSRII SORP cytometer equipped with appropriate lasers and filters was used. Peptide specific cells were calculated as percentage of total CD8+ cells. Evaluation of multimeric analysis was done using the FlowJo software (Tree Star, Oregon, USA). In vitro priming of specific multimer+CD8+ lymphocytes was detected by comparing to negative control stimulations.

The next assay addresses HLA-A*02:01 (Homo sapiens, UniProt P04439, D140Y/D185E/D98H/E176V/E277Q/G131W/G231S/I119V/I121R/I166T/I218V/L300P/L318F/N151K/N90K/P208A/P217A/Q86G/Q94H/R138H/R169H/T345S). The assay can be described thus: MHC binding assay (UV-ligand exchange, beta2m ELISA, peptide exchange yield). The conditions noted are these: binding to HLA-A*02:01, β2m ELISA. The gist of the method:
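Peptide–MHC complexes formed by UV-ligand exchange, cleaving a UV-sensitive peptide so the test peptide can bind. Exchange yield measured by ELISA: complexes captured on streptavidin-coated wells, diluted 100-fold, detected with HRP anti-β2m (1 h, 37 °C) and TMB at 450 nm, against refolded HLA-A*02:01/MLA-001 standards (15-500 ng/ml).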
For orientation: An ELISA detects its analyte on a solid surface through an enzyme-linked reagent.

Turning to “123 (KTLERSYLL; listed as Homo sapiens) [compound 123]”, in assay [1], the “Wells positive [%]” value is reported as ““+” (<20% = +)”. Moreover, the “Peptide exchange (MHC class I binding score, peptide exchange yield)” value (“Peptide exchange” below) with HLA-A*02:01 was ““++” (≥20% = ++)”.

For “124 (RVLPPSALQSV; listed as Homo sapiens) [compound 124]”, in assay [1], the “Wells positive [%]” value is on record as ““+” (<20% = +)”. The “Peptide exchange” value in the assay with HLA-A*02:01 is on record as ““+++” (≥50 = +++)”.

“127 (RLAELTVDEFLA; listed as Homo sapiens) [compound 127]”: the “Wells positive [%]” value in assay [1] is reported as ““+” (<20% = +)”. Further, the “Peptide exchange” value in the assay with HLA-A*02:01 is listed as ““+++” (≥50 = +++)”.

Take “132 (ALLNAILHSA; listed as Homo sapiens) [compound 132]”: in assay [1], the “Wells positive [%]” value was ““+” (<20% = +)”. Further, the “Peptide exchange” value with HLA-A*02:01 was ““+++” (≥50 = +++)”.

With “133 (RTFEKIEEV; listed as Homo sapiens) [compound 133]”, the “Wells positive [%]” value in assay [1] is given as ““+” (<20% = +)”. Also, the “Peptide exchange” value with HLA-A*02:01 is listed as ““++” (≥20% = ++)”.

Take “141 (AVIEHLERL; listed as Homo sapiens) [compound 141]”: in assay [1], the “Wells positive [%]” value is listed as ““+” (<20% = +)”. In the assay with HLA-A*02:01, the “Peptide exchange” value is ““++++” (≥75% = ++++)”.

Turning to “142 (SLVQRVETI; listed as Homo sapiens) [compound 142]”, the “Wells positive [%]” value in assay [1] is ““+” (<20% = +)”. Further, in the assay with HLA-A*02:01, the “Peptide exchange” value is reported as ““+++” (≥50 = +++)”.

For the substance “150 (RLADLEALKV; listed as Homo sapiens) [compound 150]”, the “Wells positive [%]” value in assay [1] was ““++” (20%-49% = ++)”. In addition, in the assay with HLA-A*02:01, the “Peptide exchange” value was ““+++” (≥50 = +++)”.
